Entries after “also recorded” stand apart in the source; their conditions may differ. Where a name gives a salt, the structure may show the parent alone.
Tests used:
[1] = cited from earlier work
[2] = Arterial blood pressure monitored during intracarotid infusion; settings: higher doses, 100 and 110 μg/kg/min

## CC1=NS(=O)(=O)c2cc(Cl)ccc2N1 [diazoxide]
[1]
  solubility in water: not easily dissolved in water

## Nc1cc(N2CCCCC2)nc(N)[n+]1OS(=O)(=O)[O-] [minoxidil sulfate]
[1]
  solubility in water: not easily dissolved in water

## CC(N/C(=N\C#N)Nc1ccncc1)C(C)(C)C (racemic) [pinacidil, (+/−)-N-cyano-N′-4-pyridinyl-N″-(1,2,2-trimethylpropyl)-guanidine]
[1]
  solubility in water: insoluble in water; also recorded: not easily dissolved in water

## O=c1[nH]c2cc(C(F)(F)F)ccc2n1-c1cc(C(F)(F)F)ccc1O [NS-1619, 1,3-dihydro-1-[2-hydroxy-5-(trifluoromethyl)phenyl]-5-(trifluoromethyl)-2H-benzimidazol-2-one]
[1]
  solubility in water: not easily dissolved in water
[2]
  arterial blood pressure: significant drop
